Counter-ions that a name gives are not always drawn.
Legend:
[1] = target: GDP-bound KRAS protein (aa 1-169), containing both G12D and C118A amino acid substitutions (Homo sapiens (Human), UniProt P01116, C118A/G12D); assay: KRAS G12D Coupled Nucleotide Exchange Assay; assay type: biochemical; details: read-out: KRAS G12D Coupled Exchange IC50
Experimental: KRAS G12D Coupled Nucleotide Exchange Assay
Following compound pre-incubation, purified SOS protein (aa 564-1049) and GTP (Roche 10106399001) were added to the assay wells and incubated for an additional 30 min. To determine the extent of inhibition of SOS-mediated nucleotide exchange, purified GST-tagged cRAF (aa 1-149), nickel chelate AlphaLISA acceptor beads (PerkinElmer AL108R), and AlphaScreen glutathione donor beads (PerkinElmer 6765302) were added to the assay wells and incubated for 10 minutes. The assay plates were then read on a PerkinElmer EnVision Multilabel Reader, using AlphaScreen® technology, and data were analyzed using a 4-parameter logistic model to calculate IC50 values.

[2] = target: His-tagged KRAS G12D protein (Homo sapiens (Human), UniProt P01116, G12D); assay: KRAS G12D TR-FRET Assay; assay type: binding; details: read-out: KRAS G12D Binding IC50
Sequence of His-tagged KRAS G12D protein (P01116 other isoform, or with tags, fused parts or gaps G12D): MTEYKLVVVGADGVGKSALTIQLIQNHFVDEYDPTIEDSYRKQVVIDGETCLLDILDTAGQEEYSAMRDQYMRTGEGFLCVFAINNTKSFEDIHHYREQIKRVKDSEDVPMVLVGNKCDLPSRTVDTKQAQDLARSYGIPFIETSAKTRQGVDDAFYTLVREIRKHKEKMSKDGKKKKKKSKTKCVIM
Experimental: Compounds of interest were prepared in a dose-response titration in DMSO, and 80 nL were added via Labcyte Echo to each well of a 384-well plate (Perkin Elmer 6008280). The His-tagged KRAS G12D protein (Amgen) was diluted to 20 nM in Assay Buffer (20 mM HEPES, pH 7.4, 10 mM MgCl2, 50 mM NaCl, 0.1% BSA, 0.01% Tween-20, 10 μM GDP) and 2 μL was added to the appropriate wells of the 384-well plate. The plate was incubated for 30 minutes at room temperature. Biotinylated KRPep-2d substrate (Amgen) was diluted to 20 nM in Assay Buffer and 2 μL was added to all wells and incubated for 1 hour at room temperature. Detection Reagent (0.4 nM LANCE Eu-W1024 Anti-6×His (Perkin Elmer AD0401), 5 nM streptavidin-d2 (Cisbio 610SADLA)) was prepared in Assay Buffer, then 4 μL was added to the plate and incubated for 1 hour at room temperature. Plates were read using PerkinElmer EnVision (ex: 320 nm, em1: 665 nm, em2: 615 nm) and em1/em2 data was used to generate curve fits using a 4-parameter logistic model to calculate IC50 values.

Sequence of GDP-bound KRAS protein (aa 1-169), containing both G12D and C118A amino acid substitutions (P01116 other isoform, or with tags, fused parts or gaps G12D/C118A): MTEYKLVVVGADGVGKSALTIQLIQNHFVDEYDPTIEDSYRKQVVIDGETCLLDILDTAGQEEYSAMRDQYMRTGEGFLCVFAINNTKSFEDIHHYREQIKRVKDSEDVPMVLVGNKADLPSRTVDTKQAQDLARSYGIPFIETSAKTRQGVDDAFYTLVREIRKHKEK

IC50 [1] [µM]	IC50 [2] [µM]	SMILES
0.007	0.01	Cc1c2ncc3c(nc(OC[C@]45CC[C@@H](CC4)C(=O)N5)nc13)N1CCC[C@](C)(C1)NC(=O)CCCc1c(F)ccc3cc(O)cc-2c13 [Example 25, (15R)-22-Fluoro-27-hydroxy-15,31-dimethyl-8-(((1s,4s)-3-oxo-2-azabicyclo[2.2.2]octan-1-yl)methoxy)-3,7,9,11,16-pentaazahexacyclo[19.7.1.1˜2,6˜.1˜11,15˜.0˜5,10˜.0˜25,29˜]hentriaconta-1(28),2(31),3,5,7,9,21,23,25(29),26-decaen-17-one]
0.109	0.124	Cc1c2ncc3c(nc(OCC(C)(C)O)nc13)N1CCC[C@](C)(C1)NC(=O)CCCc1c(F)ccc3cc(O)cc-2c13 [Example 26, (15R)-22-Fluoro-27-hydroxy-8-(2-hydroxy-2-methylpropoxy)-15,31-dimethyl-3,7,9,11,16-pentaazahexacyclo[19.7.1.1˜2,6˜.1˜11,15˜.0˜5,10˜.0˜25,29˜]hentriaconta-1(28),2(31),3,5,7,9,21,23,25(29),26-decaen-17-one]
0.048	0.068	C[C@@]12CCCN(C1)c1nc(OC[C@@]34CCCN3C[C@H](F)C4)nc3c(F)c(ncc13)-c1cc(O)cc3c1[C@H](CCCC(=O)N2)CCC3 [Example 28, (15R,21S)-31-fluoro-8-(((2R,7aS)-2-fluorotetrahydro-1H-pyrrolo[1,2-a]pyrrol-7a(5H)-yl)methoxy)-27-hydroxy-15-methyl-3,7,9,11,16-pentaazahexacyclo[19.7.1.1˜2,6˜.1˜11,15˜.0˜5,10˜.0˜25,29˜]hentriaconta-1(29),2(31),3,5,7,9,25,27-octaen-17-one 2,2,2-trifluoroacetate salt]
0.513	0.443	O=C1CCCc2cccc3cccc(c23)-c2ncc3c(nc(OC[C@@]45CCCN4C[C@H](F)C5)nc3c2F)N2CCC[C@H](C2)O1 [Example 29, (15R)-31-Fluoro-8-(((2R,7aS)-2-fluorotetrahydro-1H-pyrrolo[1,2-a]pyrrol-7a(5H)-yl)methoxy)-16-oxa-3,7,9,11-tetraazahexacyclo[19.7.1.1˜2,6˜.1˜11,15˜.0˜5,10˜.0˜25,29˜]hentriaconta-1(28),2(31),3,5,7,9,21,23,25(29),26-decaen-17-one bis(2,2,2-trifluoroacetate)]
0.177	0.22	Cc1cc2[nH]ncc2c2c1CCCCCC(=O)O[C@@H]1CCCN(C1)c1nc(OC[C@@]34CCCN3C[C@H](F)C4)nc3c(F)c-2ncc13 [Example 34, (18R)-31-fluoro-25-(((2R,7aS)-2-fluorotetrahydro-1H-pyrrolo[1,2-a]pyrrol-7a(5H)-yl)methoxy)-9-methyl-17-oxa-5,6,22,24,26,30-hexaazahexacyclo[25.3.1.1~18,22~.0~2,10~.0~3,7~.0~23,28~]dotriaconta-1(31),2,4,7,9,23,25,27,29-nonaen-16-one]
0.01	0.012	O=C1OC[C@H]2C[C@H]2c2c(Cl)cc3[nH]ncc3c2-c2ncc3c(nc(OC[C@@]45CCCN4C[C@H](F)C5)nc3c2F)N2CCC[C@H](C2)O1 [Example 46, (11R,13S,18R)-9-chloro-31-fluoro-25-(((2R,7aS)-2-fluorotetrahydro-1H-pyrrolo[1,2-a]pyrrol-7a(5H)-yl)methoxy)-15,17-dioxa-5,6,22,24,26,30-hexaazaheptacyclo[25.3.1.1˜18,22˜.0˜2,10˜.0˜3,7˜.0˜11,13˜.0˜23,28˜]dotriaconta-1(31),2,4,7,9,23,25,27,29-nonaen-16-one bis(2,2,2-trifluoroacetate)]
0.481	0.651	O=C1CCCCc2c(Cl)cccc2-c2ncc3c(nc(OC[C@@]45CCCN4C[C@H](F)C5)nc3c2F)N2CCC[C@H](C2)N1 [Example 59, (23R)-15-chloro-28-fluoro-4-(((2R,7aS)-2-fluorotetrahydro-1H-pyrrolo[1,2-a]pyrrol-7a(5H)-yl)methoxy)-1,3,5,9,22-pentaazapentacyclo[21.3.1.1~6,10~.0~2,7~.0~11,16~]octacosa-2,4,6,8,10(28),11,13,15-octaen-21-one]
0.274	0.277	O=C1CCCc2c(F)ccc3cccc(c23)-c2ncc3c(nc(OC[C@@]45CCCN4C[C@H](F)C5)nc3c2F)N2CCOC[C@H](C2)N1 [Example 70, (16S)-23,32-difluoro-8-(((2R,7aS)-2-fluorotetrahydro-1H-pyrrolo[1,2-a]pyrrol-7a(5H)-yl)methoxy)-14-oxa-3,7,9,11,17-pentaazahexacyclo[20.7.1.1~2,6~.1~11,16~.0~5,10~.0~26,30~]dotriaconta-1(29),2(32),3,5,7,9,22,24,26(30),27-decaen-18-one]
0.119	0.306	O=C1CCCc2c(F)ccc3cccc(c23)-c2ncc3c(nc(OC[C@@]45CCCN4C[C@H](F)C5)nc3c2F)N2CC[C@@H]3CCN1[C@@H]3C2 [Example 71, (27R,31S)-18,33-Difluoro-4-(((2R,7aS)-2-fluorotetrahydro-1H-pyrrolo[1,2-a]pyrrol-7a(5H)-yl)methoxy)-1,3,5,9,24 pentaazaheptacyclo[22.5.2.1˜6,10˜.1˜11,15˜.0˜2,7˜.0˜19,32˜.0˜27,31˜]tritriaconta-2,4,6,8,10(33),11,13,15(32),16,18-decaen-23-one]
2.1	3.81	C[C@]12CCCN(C1)c1nc(OC[C@@]34CCCN3C[C@H](F)C4)nc3c(F)c(ncc13)-c1cccc3ccc(F)c(c13)CCOC(=O)N2 [Example 78, (15S)-22,31-difluoro-8-(((2R,7aS)-2-fluorotetrahydro-1H-pyrrolo[1,2-a]pyrrol-7a(5H)-yl)methoxy)-15-methyl-18-oxa-3,7,9,11,16-pentaazahexacyclo[19.7.1.1~2,6~.1~11,15~.0~5,10~.0~25,29~]hentriaconta-1(29),2(31),3,5,7,9,21,23,25,27-decaen-17-one]
0.196	0.18	O=C1CCCc2c(F)ccc3cccc(c23)-c2ncc3c(nc(OC[C@@]45CCCN4C[C@H](F)C5)nc3c2F)N2CCOC[C@H](C2)O1 [Example 109]
0.422	0.508	C[C@@]12CCCN(C1)c1nc(OC[C@@]34CCCN3C[C@H](F)C4)nc3c(F)c(ncc13)-c1cccc3cccc(c13)CCCOC(=O)O2 [Example 121]
0.067	0.07	Cc1cc2[nH]ncc2c2c1CCCCCO[C@@H]1CCCN(C1)c1nc(OC[C@@]34CCCN3C[C@H](F)C4)nc3c(F)c-2ncc13 [Example 132]
0.24	0.241	Cc1cc2[nH]ncc2c2c1CC/C=C\CO[C@@H]1CCCN(C1)c1nc(OC[C@@]34CCCN3C[C@H](F)C4)nc3c(F)c-2ncc13 [Example 133]
0.065	0.077	Fc1c2ncc3c(nc(OC[C@@]45CCCN4C[C@H](F)C5)nc13)N1CCC[C@H](C1)Cn1cc(nn1)CCc1c(Cl)cc3[nH]ncc3c1-2 [Example 146]
0.056	0.071	Fc1c2ncc3c(nc(OC[C@@]45CCCN4C[C@H](F)C5)nc13)N1CCO[C@@H](COCCOCc3c(Cl)cc4[nH]ncc4c3-2)C1 [Example 152, (17R)-9-chloro-30-fluoro-24-(((2R,7aS)-2-fluorotetrahydro-1H-pyrrolo[1,2-a]pyrrol-7a(5H)-yl)methoxy)-12,15,18-trioxa-5,6,21,23,25,29 hexaazahexacyclo[24.3.1.1~17,21~.0~2,10~.0~3,7~.0~22,27~]hentriaconta-1(30),2,4,7,9,22,24,26,28-nonaene]
1.57	2.84	O=C1CCCCc2c(Cl)cccc2-c2ncc3c(nc(OC[C@@]45CCCN4C[C@H](F)C5)nc3c2F)N2CC[C@@H]3CCN1[C@@H]3C2 [Example 163, (25R,29S)-15-chloro-30-fluoro-4-(((2R,7aS)-2-fluorotetrahydro-1H-pyrrolo[1,2-a]pyrrol-7a(5H)-yl)methoxy)-1,3,5,9,22-pentaazahexacyclo[20.5.2.1~6,10~.0~2,7~.0~11,16~.0~25,29~]triaconta-2,4,6,8,10(30),11,13,15-octaen-21-one]
4.43	12.7	C[C@]12CCCCN(C1)c1nc(OC[C@@]34CCCN3C[C@H](F)C4)nc3c(F)c(ncc13)-c1c(c(Cl)cc3[nH]ncc13)CCCCC(=O)N2 [Example 165, (26S)-18-chloro-32-fluoro-4-(((2R,7aS)-2-fluorotetrahydro-1H-pyrrolo[1,2-a]pyrrol-7a(5H)-yl)methoxy)-26-methyl-1,3,5,9,14,15,25-heptaazahexacyclo[24.4.1.1~6,10~.0~2,7~.0~11,19~.0~12,16~]dotriaconta-2,4,6,8,10(32),11,13,16,18-nonaen-24-one]

SMILES	IC50 [1] [µM]	IC50 [2] [µM]
Cc1cc2[nH]ncc2c2c1CC/C=C/CO[C@@H]1CCCN(C1)c1nc(OC[C@@]34CCCN3C[C@H](F)C4)nc3c(F)c-2ncc13 [Example 134]	0.059	0.056

From patent publication US20240294551A1 (AMGEN INC., priority 2022, published 2024)
